Experimental data reported in the OligoGym collection.
Oligonucleotides are written 5' to 3', each unit as a sugar letter and its base; * is a phosphorothioate linkage, no mark a phosphodiester; rarer units and linkages stand in square brackets, end groups in braces. Plain capitals give the bases only. d = 2'-deoxy (DNA); r = 2'-OH (RNA)

biological target: RHOQ; experiment: reporter assay of Huesken 2005; settings: siRNA
Also: test concentration or dose not given here.

| Substance | normalised inhibition (eCFP-eYFP dual reporter) [%] |
| --- | --- |
| sense rCrUrCrArArArUrGrGrArArUrCrUrUrArUrGrUdTdT / antisense rArCrArUrArArGrArUrUrCrCrArUrUrUrGrArGdCdA | 55.5 |
| sense rUrGrCrArUrUrUrUrArGrArGrArArArCrArArUdTdT / antisense rArUrUrGrUrUrUrCrUrCrUrArArArArUrGrCrAdTdT | 84.9 |
| sense rUrCrArCrArUrGrArCrUrUrGrArGrCrUrUrArUdTdT / antisense rArUrArArGrCrUrCrArArGrUrCrArUrGrUrGrAdAdT | 87 |
| sense rUrGrCrUrCrArUrArUrCrArGrUrCrArCrArArAdTdT / antisense rUrUrUrGrUrGrArCrUrGrArUrArUrGrArGrCrAdTdT | 83.6 |
| sense rCrUrUrArUrGrUrArUrGrCrUrCrArArArUrGrGdTdT / antisense rCrCrArUrUrUrGrArGrCrArUrArCrArUrArArGdGdC | 44 |
| sense rArCrUrUrUrCrUrUrArUrUrUrArArUrUrUrUrGdTdT / antisense rCrArArArArUrUrArArArUrArArGrArArArGrUdTdA | 43.6 |
| sense rUrGrUrArUrGrUrGrArGrCrUrUrUrGrUrArGrAdTdT / antisense rUrCrUrArCrArArArGrCrUrCrArCrArUrArCrAdAdC | 75.3 |
| sense rUrUrUrCrUrUrArUrUrUrArArUrUrUrUrGrGrUdTdT / antisense rArCrCrArArArArUrUrArArArUrArArGrArArAdGdT | 44.1 |
| sense rGrArArArGrGrArArUrUrGrUrArUrArArArUrCdTdT / antisense rGrArUrUrUrArUrArCrArArUrUrCrCrUrUrUrCdAdA | 51.4 |
| sense rUrArGrCrUrArUrGrUrCrUrArCrUrGrCrArCrAdTdT / antisense rUrGrUrGrCrArGrUrArGrArCrArUrArGrCrUrAdTdA | 86.8 |
| sense rCrArGrArUrUrGrGrGrUrArArUrGrGrArArCrAdTdT / antisense rUrGrUrUrCrCrArUrUrArCrCrCrArArUrCrUrGdTdG | 86.3 |
| sense rArGrArUrUrGrGrGrUrArArUrGrGrArArCrArCdTdT / antisense rGrUrGrUrUrCrCrArUrUrArCrCrCrArArUrCrUdGdT | 72 |
| sense rUrGrGrArUrGrUrCrUrUrCrUrUrUrCrUrUrCrCdTdT / antisense rGrGrArArGrArArArGrArArGrArCrArUrCrCrAdAdA | 68.4 |
| sense rUrGrCrCrArUrGrCrArUrCrArGrArUrArArUrGdTdT / antisense rCrArUrUrArUrCrUrGrArUrGrCrArUrGrGrCrAdTdA | 59.7 |
| sense rArArUrArUrArArGrCrArUrCrArCrCrUrUrCrCdTdT / antisense rGrGrArArGrGrUrGrArUrGrCrUrUrArUrArUrUdTdT | 51.8 |
| sense rUrGrUrGrArArCrArArCrCrUrArArUrGrCrArUdTdT / antisense rArUrGrCrArUrUrArGrGrUrUrGrUrUrCrArCrAdAdT | 75.4 |
| sense rGrArGrArGrUrCrUrArCrUrGrGrArUrGrArCrUdTdT / antisense rArGrUrCrArUrCrCrArGrUrArGrArCrUrCrUrCdTdC | 77.3 |
| sense rUrGrCrArUrCrArGrArUrArArUrGrGrUrGrUrUdTdT / antisense rArArCrArCrCrArUrUrArUrCrUrGrArUrGrCrAdTdC | 61.6 |
| sense rCrArCrArUrUrArArArGrUrArUrCrArUrGrGrCdTdT / antisense rGrCrCrArUrGrArUrArCrUrUrUrArArUrGrUrGdAdA | 62.4 |
| sense rUrGrArArArArUrGrArCrArGrCrCrUrUrArArAdTdT / antisense rUrUrUrArArGrGrCrUrGrUrCrArUrUrUrUrCrAdAdG | 78.8 |
| sense rCrCrUrUrArUrGrUrArUrGrCrUrCrArArArUrGdTdT / antisense rCrArUrUrUrGrArGrCrArUrArCrArUrArArGrGdCdC | 65.1 |
| sense rCrUrUrCrUrUrUrCrUrUrCrCrArArGrArArArUdTdT / antisense rArUrUrUrCrUrUrGrGrArArGrArArArGrArArGdAdC | 53.7 |
| sense rArArArUrGrArCrArGrCrCrUrUrArArArUrGrCdTdT / antisense rGrCrArUrUrUrArArGrGrCrUrGrUrCrArUrUrUdTdC | 42.3 |
| sense rCrUrGrUrGrGrArUrCrUrGrCrCrUrUrArUrUrGdTdT / antisense rCrArArUrArArGrGrCrArGrArUrCrCrArCrArGdCdA | 79 |
| sense rUrUrGrArArArArUrGrArCrArGrCrCrUrUrArAdTdT / antisense rUrUrArArGrGrCrUrGrUrCrArUrUrUrUrCrArAdGdT | 87.1 |
| sense rUrArUrArGrCrUrArUrGrUrCrUrArCrUrGrCrAdTdT / antisense rUrGrCrArGrUrArGrArCrArUrArGrCrUrArUrAdAdG | 77.6 |

| Substance | normalised inhibition (eCFP-eYFP dual reporter) [%] |
| --- | --- |
| sense rUrUrCrCrArArGrArArArUrGrGrUrGrGrUrUrCdTdT / antisense rGrArArCrCrArCrCrArUrUrUrCrUrUrGrGrArAdGdA | 38.3 |
| sense rArCrArCrUrArArArCrUrUrUrUrArUrArCrUrUdTdT / antisense rArArGrUrArUrArArArArGrUrUrUrArGrUrGrUdTdC | 76.1 |
| sense rCrArArGrArArArUrGrGrUrGrGrUrUrCrArCrAdTdT / antisense rUrGrUrGrArArCrCrArCrCrArUrUrUrCrUrUrGdGdA | 84.9 |
| sense rUrUrGrCrUrGrUrUrGrCrCrCrArArArUrUrArUdTdT / antisense rArUrArArUrUrUrGrGrGrCrArArCrArGrCrArAdGdT | 83.5 |
| sense rUrGrCrUrGrUrUrGrCrCrCrArArArUrUrArUrAdTdT / antisense rUrArUrArArUrUrUrGrGrGrCrArArCrArGrCrAdAdG | 85.6 |
| sense rCrArUrUrUrGrGrArUrGrUrCrUrUrCrUrUrUrCdTdT / antisense rGrArArArGrArArGrArCrArUrCrCrArArArUrGdTdC | 73.6 |
| sense rArArArUrCrArArUrUrArArCrArUrArUrUrArGdTdT / antisense rCrUrArArUrArUrGrUrUrArArUrUrGrArUrUrUdAdT | 46.2 |
| sense rUrGrArCrUrUrGrArGrCrUrUrArUrArGrCrUrAdTdT / antisense rUrArGrCrUrArUrArArGrCrUrCrArArGrUrCrAdTdG | 84.9 |
| sense rCrUrGrGrArUrGrArCrUrGrGrCrCrArGrGrArAdTdT / antisense rUrUrCrCrUrGrGrCrCrArGrUrCrArUrCrCrArGdTdA | 75.7 |
| sense rCrArGrArUrArArUrGrGrArUrGrCrArUrCrArGdTdT / antisense rCrUrGrArUrGrCrArUrCrCrArUrUrArUrCrUrGdAdT | 80.4 |
| sense rArUrArArUrGrGrArUrGrCrArUrCrArGrArUrAdTdT / antisense rUrArUrCrUrGrArUrGrCrArUrCrCrArUrUrArUdCdT | 80.8 |
| sense rArUrGrGrArArCrArCrUrArArArCrUrUrUrUrAdTdT / antisense rUrArArArArGrUrUrUrArGrUrGrUrUrCrCrArUdTdA | 82.1 |
| sense rCrUrArCrArUrUrUrArArArCrUrUrGrCrUrGrUdTdT / antisense rArCrArGrCrArArGrUrUrUrArArArUrGrUrArGdGdA | 82.5 |
| sense rUrArUrGrCrCrArUrGrCrArUrCrArGrArUrArAdTdT / antisense rUrUrArUrCrUrGrArUrGrCrArUrGrGrCrArUrAdTdG | 75.7 |
| sense rCrArUrUrUrArArArCrUrUrGrCrUrGrUrUrGrCdTdT / antisense rGrCrArArCrArGrCrArArGrUrUrUrArArArUrGdTdA | 74.6 |
| sense rGrCrArUrCrArGrArUrArArUrGrGrUrGrUrUrAdTdT / antisense rUrArArCrArCrCrArUrUrArUrCrUrGrArUrGrCdAdT | 92.8 |
| sense rCrUrUrArUrUrUrArArUrUrUrUrGrGrUrCrUrGdTdT / antisense rCrArGrArCrCrArArArArUrUrArArArUrArArGdAdA | 52.2 |
| sense rArUrArArArArUrUrGrArArArGrGrArArUrUrGdTdT / antisense rCrArArUrUrCrCrUrUrUrCrArArUrUrUrUrArUdCdT | 36.4 |
| sense rUrCrUrUrArUrUrUrArArUrUrUrUrGrGrUrCrUdTdT / antisense rArGrArCrCrArArArArUrUrArArArUrArArGrAdAdA | 44.2 |
| sense rUrCrGrGrArCrArUrUrUrGrGrArUrGrUrCrUrUdTdT / antisense rArArGrArCrArUrCrCrArArArUrGrUrCrCrGrAdTdT | 83 |
| sense rArUrCrArGrUrCrArCrArArArUrCrUrArGrGrAdTdT / antisense rUrCrCrUrArGrArUrUrUrGrUrGrArCrUrGrArUdAdT | 75.3 |
| sense rArGrGrArUrGrUrArCrUrGrUrCrUrUrGrUrUrGdTdT / antisense rCrArArCrArArGrArCrArGrUrArCrArUrCrCrUdAdG | 81.7 |
| sense rGrGrArUrGrUrCrUrUrCrUrUrUrCrUrUrCrCrAdTdT / antisense rUrGrGrArArGrArArArGrArArGrArCrArUrCrCdAdA | 83.2 |
| sense rArCrArGrArUrUrGrGrGrUrArArUrGrGrArArCdTdT / antisense rGrUrUrCrCrArUrUrArCrCrCrArArUrCrUrGrUdGdC | 47.1 |
| sense rCrArUrGrCrArUrCrArGrArUrArArUrGrGrArUdTdT / antisense rArUrCrCrArUrUrArUrCrUrGrArUrGrCrArUrGdGdC | 72.3 |
| sense rArUrArArArUrCrArArUrUrArArCrArUrArUrUdTdT / antisense rArArUrArUrGrUrUrArArUrUrGrArUrUrUrArUdAdC | 38.4 |
